Results published in the NIST ThermoML archive (doi:10.1016/j.jct.2005.04.018).

Settings: Liquid, Vibrating tube method

CCCCCC[n+]1ccn(C)c1.O=S(=O)([N-]S(=O)(=O)C(F)(F)F)C(F)(F)F
Settings | mass density [kg/m3]
298.15 K, 100 kPa | 1370.81
298.15 K, 1830 kPa | 1372.13
298.15 K, 10020 kPa | 1378.18
298.15 K, 14980 kPa | 1381.7
298.15 K, 19750 kPa | 1384.98
298.15 K, 25860 kPa | 1389.1
298.15 K, 31480 kPa | 1392.73
298.15 K, 37770 kPa | 1396.74
298.15 K, 44170 kPa | 1400.64
298.15 K, 50750 kPa | 1404.48
298.15 K, 59590 kPa | 1409.53
299.15 K, 100 kPa | 1369.96
299.15 K, 1830 kPa | 1371.27
299.15 K, 10020 kPa | 1377.3
299.15 K, 14980 kPa | 1380.81
299.15 K, 19750 kPa | 1384.12
299.15 K, 25860 kPa | 1388.22
299.15 K, 31480 kPa | 1391.88
299.15 K, 37770 kPa | 1395.86
299.15 K, 44170 kPa | 1399.77
299.15 K, 50750 kPa | 1403.7
299.15 K, 59590 kPa | 1408.77
300.15 K, 100 kPa | 1368.97
300.15 K, 1830 kPa | 1370.29
300.15 K, 10020 kPa | 1376.36
300.15 K, 14980 kPa | 1379.86
300.15 K, 19750 kPa | 1383.21
300.15 K, 25860 kPa | 1387.32
300.15 K, 31480 kPa | 1391
300.15 K, 37770 kPa | 1395.01
300.15 K, 44170 kPa | 1398.88
300.15 K, 50750 kPa | 1402.84
300.15 K, 59590 kPa | 1407.93
301.15 K, 100 kPa | 1368.11
301.15 K, 1830 kPa | 1369.42
301.15 K, 10020 kPa | 1375.49
301.15 K, 14980 kPa | 1379.01
301.15 K, 19750 kPa | 1382.28
301.15 K, 25860 kPa | 1386.44
301.15 K, 31480 kPa | 1390.11
301.15 K, 37770 kPa | 1394.07
301.15 K, 44170 kPa | 1398.06
301.15 K, 50750 kPa | 1401.99
301.15 K, 59590 kPa | 1407.14
302.15 K, 100 kPa | 1367.15
302.15 K, 1830 kPa | 1368.47
302.15 K, 10020 kPa | 1374.56
302.15 K, 14980 kPa | 1378.1
302.15 K, 19750 kPa | 1381.43
302.15 K, 25860 kPa | 1385.56
302.15 K, 31480 kPa | 1389.24
302.15 K, 37770 kPa | 1393.28
302.15 K, 44170 kPa | 1397.22
302.15 K, 50750 kPa | 1401.19
302.15 K, 59590 kPa | 1406.37
303.15 K, 100 kPa | 1366.24
303.15 K, 1830 kPa | 1367.56
303.15 K, 10020 kPa | 1373.64
303.15 K, 14980 kPa | 1377.17
303.15 K, 19750 kPa | 1380.47
303.15 K, 25860 kPa | 1384.59
303.15 K, 31480 kPa | 1388.3
303.15 K, 44170 kPa | 1396.31
303.15 K, 50750 kPa | 1400.29
303.15 K, 59590 kPa | 1405.51
308.15 K, 100 kPa | 1361.65
308.15 K, 1830 kPa | 1362.96
308.15 K, 10020 kPa | 1369.05
308.15 K, 14980 kPa | 1372.62
308.15 K, 19750 kPa | 1375.95
308.15 K, 25860 kPa | 1380.12
308.15 K, 31480 kPa | 1383.86
308.15 K, 37770 kPa | 1387.93
308.15 K, 44170 kPa | 1391.98
308.15 K, 50750 kPa | 1396.05
308.15 K, 59590 kPa | 1401.4
313.15 K, 100 kPa | 1357.01
313.15 K, 1830 kPa | 1358.32
313.15 K, 10020 kPa | 1364.45
313.15 K, 14980 kPa | 1368.01
313.15 K, 19750 kPa | 1371.36
313.15 K, 25860 kPa | 1375.57
313.15 K, 31480 kPa | 1379.34
313.15 K, 37770 kPa | 1383.47
313.15 K, 44170 kPa | 1387.6
313.15 K, 50750 kPa | 1391.76
313.15 K, 59590 kPa | 1397.25
318.15 K, 100 kPa | 1352.32
318.15 K, 1830 kPa | 1353.62
318.15 K, 10020 kPa | 1359.84
318.15 K, 14980 kPa | 1363.45
318.15 K, 25860 kPa | 1371.1
318.15 K, 31480 kPa | 1374.91
318.15 K, 37770 kPa | 1379.09
318.15 K, 44170 kPa | 1383.28
318.15 K, 50750 kPa | 1387.51
323.15 K, 100 kPa | 1348.05
323.15 K, 1830 kPa | 1349.36
323.15 K, 10020 kPa | 1355.55
323.15 K, 14980 kPa | 1359.13
323.15 K, 19750 kPa | 1362.5
323.15 K, 25860 kPa | 1366.73
323.15 K, 31480 kPa | 1370.56
323.15 K, 37770 kPa | 1374.72
323.15 K, 44170 kPa | 1378.88
323.15 K, 50750 kPa | 1383.17
325.15 K, 100 kPa | 1346.34
325.15 K, 1830 kPa | 1347.7
325.15 K, 10020 kPa | 1354.03
325.15 K, 14980 kPa | 1357.71
325.15 K, 19750 kPa | 1361.18
325.15 K, 25860 kPa | 1365.48
325.15 K, 31480 kPa | 1369.35
325.15 K, 37770 kPa | 1373.57
325.15 K, 44170 kPa | 1377.76
325.15 K, 50750 kPa | 1382.02
327.15 K, 100 kPa | 1344.39
327.15 K, 1830 kPa | 1345.74
327.15 K, 10020 kPa | 1352.05
327.15 K, 14980 kPa | 1355.75
327.15 K, 19750 kPa | 1359.21
327.15 K, 25860 kPa | 1363.58
327.15 K, 31480 kPa | 1367.53
327.15 K, 37770 kPa | 1371.82
327.15 K, 44170 kPa | 1376.09
327.15 K, 50750 kPa | 1380.39
329.15 K, 100 kPa | 1342.33
329.15 K, 1830 kPa | 1343.71
329.15 K, 10020 kPa | 1350.14
329.15 K, 14980 kPa | 1353.87
329.15 K, 19750 kPa | 1357.38
329.15 K, 25860 kPa | 1361.77
329.15 K, 31480 kPa | 1365.68
329.15 K, 37770 kPa | 1369.99
329.15 K, 44170 kPa | 1374.26
329.15 K, 50750 kPa | 1378.59
331.15 K, 100 kPa | 1340.37
331.15 K, 1830 kPa | 1341.75
331.15 K, 10020 kPa | 1348.2
331.15 K, 14980 kPa | 1351.91
331.15 K, 19750 kPa | 1355.44
331.15 K, 25860 kPa | 1359.84
331.15 K, 31480 kPa | 1363.79
331.15 K, 37770 kPa | 1368.1
331.15 K, 44170 kPa | 1372.39
331.15 K, 50750 kPa | 1376.72
333.15 K, 100 kPa | 1338.24
333.15 K, 1830 kPa | 1339.65
333.15 K, 10020 kPa | 1346.2
333.15 K, 14980 kPa | 1349.99
333.15 K, 19750 kPa | 1353.57
333.15 K, 25860 kPa | 1358.01
333.15 K, 31480 kPa | 1361.98
333.15 K, 37770 kPa | 1366.34
333.15 K, 44170 kPa | 1370.63
333.15 K, 50750 kPa | 1374.95
